# Test results from paper PMC12586182 (Frontiers in Oncology, 2025).
# What was measured:
# [1] = molecular target: biotinylated, inactive MEK1 (Homo sapiens, UniProt Q02750); assay: Surface plasmon resonance binding (Biacore 1S+); conditions: SPR
# activated B-RAF = activated B-RAF (Homo sapiens, UniProt P15056); assay: Surface plasmon resonance binding (Biacore 1S+); conditions: SPR, B-RAF
# activated B-RAF, sequence (P15056 whole entry): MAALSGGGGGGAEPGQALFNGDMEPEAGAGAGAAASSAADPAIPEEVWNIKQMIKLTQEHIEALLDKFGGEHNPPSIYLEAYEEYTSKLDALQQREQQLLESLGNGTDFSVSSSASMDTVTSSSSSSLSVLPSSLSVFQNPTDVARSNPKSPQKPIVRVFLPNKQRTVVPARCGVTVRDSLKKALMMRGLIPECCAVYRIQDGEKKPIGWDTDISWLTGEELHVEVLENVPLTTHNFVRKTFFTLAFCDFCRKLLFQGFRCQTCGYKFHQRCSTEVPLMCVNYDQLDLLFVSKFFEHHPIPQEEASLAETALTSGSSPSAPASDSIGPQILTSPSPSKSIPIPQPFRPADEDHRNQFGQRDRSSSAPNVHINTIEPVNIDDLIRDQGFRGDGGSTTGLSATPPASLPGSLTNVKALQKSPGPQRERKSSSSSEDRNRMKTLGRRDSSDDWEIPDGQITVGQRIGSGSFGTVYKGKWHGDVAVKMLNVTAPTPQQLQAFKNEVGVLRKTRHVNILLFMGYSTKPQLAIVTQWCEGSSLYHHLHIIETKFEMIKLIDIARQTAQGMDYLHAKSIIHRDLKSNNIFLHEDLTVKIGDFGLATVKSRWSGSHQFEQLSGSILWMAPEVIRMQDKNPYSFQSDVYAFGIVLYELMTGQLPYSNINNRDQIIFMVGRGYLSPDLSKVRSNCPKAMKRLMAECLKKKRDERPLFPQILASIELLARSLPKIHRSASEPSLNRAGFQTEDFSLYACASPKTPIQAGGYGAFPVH
# biotinylated, inactive MEK1, sequence (Q02750 whole entry): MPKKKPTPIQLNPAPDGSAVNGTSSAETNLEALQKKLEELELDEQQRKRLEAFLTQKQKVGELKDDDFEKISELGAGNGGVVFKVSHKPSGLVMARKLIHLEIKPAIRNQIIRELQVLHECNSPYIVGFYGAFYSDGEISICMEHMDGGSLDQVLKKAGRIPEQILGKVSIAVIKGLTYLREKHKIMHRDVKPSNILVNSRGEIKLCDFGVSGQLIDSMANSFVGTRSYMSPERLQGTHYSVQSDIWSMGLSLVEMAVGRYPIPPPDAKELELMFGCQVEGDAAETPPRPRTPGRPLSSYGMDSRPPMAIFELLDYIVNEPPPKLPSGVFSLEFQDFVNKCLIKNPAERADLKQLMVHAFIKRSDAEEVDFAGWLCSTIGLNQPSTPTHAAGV
log (kd) [1],log(ka) [1],t1/2 [1],log (kd) (activated B-RAF),log(ka) (activated B-RAF),t1/2 (activated B-RAF),Compound
-3.87,5.34,1.428 h,,,,CC(=O)Nc1cccc(-n2c(=O)n(C3CC3)c(=O)c3c(Nc4ccc(I)cc4F)n(C)c(=O)c(C)c32)c1 [trametinib]
,,,-4.40,5.36,4.8056 h,COC(=O)N[C@@H](C)CNc1nccc(-c2cn(C(C)C)nc2-c2cc(Cl)cc(NS(C)(=O)=O)c2F)n1 [encorafenib]
